# Assay results as given in patent US4656173A, “Antipsychotic benzisothiazole S-oxide compound” (Bristol-Myers Company, priority 1985, dated 1987).
# What was measured:
# [1] = Kwan and Heimlich, Internat. J. of Pharmaceutics, 6, (1980) 237-241, cited for biotransformations; cited from earlier work
# [2] = Antipsychotic activity testing of dioxide (II); conditions: in vivo
# [3] = system: drug-induced catalepsy in rats; assay: Catalepsy (induction); assay type: in vivo; conditions: oral
# From the text: (§1) 3. Catalepsy--drug-induced catalepsy in rats is predictive of potential extrapyramidal symptoms (EPS) in man. cf: Costall, et al, Psychopharmacologia, 34, 233-241 (1974); Berkson, J. Amer. Statist. Assoc., 48, 565-599 (1953).
# Catalepsy (induction) = assay type: in vivo; conditions: rat, in vivo; oral; rats; read-out: oral ED50 in inducing catalepsy
# From the text: as §1
# [4] = system: avoidance response to electrical shock in trained fasted rats; assay: Conditioned Avoidance Response (CAR); assay type: in vivo
# From the text: 1. Conditioned Avoidance Response (CAR)--measure of a drug's tranquilizing activity as determined by its attenuation of avoidance response to electrical shock in trained fasted rats. cf: Albert, Pharmacologist, 4, 152 (1962); Wu, et al, J. Med. Chem., 12, 876-881 (1969).
# [5] = Metabolic interconversion in rats; assay type: in vivo
# From the text: (§2) Currently, there is insufficient information available to confirm that compound I is a metabolite of BMY 13859. […] Such interconversions have been previously reported, as for sulindac, supra.
# [6] = Blood plasma concentration after dosing of rats; assay type: in vivo; conditions: 30 minutes after dosing
# From the text: In this regard, compound I represents an antipsychotic agent giving an improved neuropharmacological profile compared with BMY 13859.
# [7] = system: apomorphine-induced stereotypy (dopaminergic activity in rats); assay: Inhibition of Apomorphine-Induced (APO) Stereotypy; assay type: in vivo
# From the text: 2. Inhibition of Apomorphine-Induced (APO) Stereotypy --an assessment of blockade of dopaminergic activity in rats as measured by attenuation of the behavioral syndrome caused by the dopamine agonist, apomorphine. cf: Janssen, et al., Arzneimittel. Forsch., 17, 841 (1966).
# [8] = target: Dopaminergic (D2) receptor binding site (Homo sapiens, UniProt P14416); assay: In vitro receptor binding, dopaminergic (D2); conditions: predictive correlate: antipsychotic efficacy, EPS liability
# [9] = target: Serotoninergic (S2) receptor binding site (Homo sapiens, UniProt P28223); assay: In vitro receptor binding, serotoninergic (S2); conditions: predictive correlate: lack of EPS (?)
# [10] = target: α-adrenergic (α1) receptor binding site; assay: In vitro receptor binding, α-adrenergic (α1); conditions: predictive correlate: postural hypotension, palpitations
# [11] = target: Muscarinic receptor binding site; assay: In vitro receptor binding, muscarinic; conditions: predictive correlate: dry mouth, constipation
# [12] = Metabolic interconversion in humans; assay type: in vivo; conditions: high pressure liquid chromatography
# From the text: as §2
# Dopaminergic (D2) receptor binding site, sequence (P14416 whole entry): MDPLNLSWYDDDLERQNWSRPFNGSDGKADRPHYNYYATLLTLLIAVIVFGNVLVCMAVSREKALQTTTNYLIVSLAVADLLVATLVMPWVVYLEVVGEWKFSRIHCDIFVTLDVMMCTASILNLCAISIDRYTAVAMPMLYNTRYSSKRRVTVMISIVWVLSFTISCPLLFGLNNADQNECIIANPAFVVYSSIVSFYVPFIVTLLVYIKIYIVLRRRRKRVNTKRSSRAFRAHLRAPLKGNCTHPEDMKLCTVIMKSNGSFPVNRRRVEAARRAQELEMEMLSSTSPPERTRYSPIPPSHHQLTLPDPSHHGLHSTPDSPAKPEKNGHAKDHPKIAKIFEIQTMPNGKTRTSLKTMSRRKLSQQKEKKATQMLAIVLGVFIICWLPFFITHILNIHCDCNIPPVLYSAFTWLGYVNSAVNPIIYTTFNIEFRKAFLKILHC
# Serotoninergic (S2) receptor binding site, sequence (P28223 whole entry): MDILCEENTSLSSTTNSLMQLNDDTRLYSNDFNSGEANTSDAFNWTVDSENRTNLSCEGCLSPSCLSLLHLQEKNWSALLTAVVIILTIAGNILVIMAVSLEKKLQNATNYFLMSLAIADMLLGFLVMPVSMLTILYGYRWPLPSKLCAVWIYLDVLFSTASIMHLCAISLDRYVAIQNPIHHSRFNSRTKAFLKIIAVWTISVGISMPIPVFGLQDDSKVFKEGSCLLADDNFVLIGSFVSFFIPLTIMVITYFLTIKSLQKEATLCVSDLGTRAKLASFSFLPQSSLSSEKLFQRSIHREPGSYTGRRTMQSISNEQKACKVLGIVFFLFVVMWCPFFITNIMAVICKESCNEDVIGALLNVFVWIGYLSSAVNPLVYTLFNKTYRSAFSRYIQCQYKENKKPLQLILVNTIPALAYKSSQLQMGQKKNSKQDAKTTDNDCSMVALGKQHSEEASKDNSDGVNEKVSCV
smiles,measurement,setting,value
CC1=C(CC(=O)O)c2cc(F)ccc2C1=Cc1ccc([S+](C)[O-])cc1 (stereo not shown) [sulindac],pharmacological activity of sulindac,[1],appears to reside only in the sulfide metabolite
O=C1CC2(CCCC2)CC(=O)N1CCCCN1CCN(C2=NS(=O)(=O)c3ccccc32)CC1 [II],antipsychotic activity,[2],devoid of antipsychotic activity
"O=C1CC2(CCCC2)CC(=O)N1CCCCN1CCN(c2n[s+]([O-])c3ccccc23)CC1 (stereo not shown) [Compound I, 8-[4-[4-(1-oxo-1,2-benzisothiazol-3-yl)-1-piperazinyl]butyl]-8-azaspiro[4.5]decane-7,9-dione]",activity in inducing catalepsy,[3],inactive
same,ED50,Catalepsy (induction),> 30 mg/kg
same,activity in the CAR test,[4],potent activity
same,compound formed after administration of compound I,[5],authentic BMY 13859 is formed in rats
same,concentration of administered agent in blood plasma versus the other (interconverted) agent,[6],several-fold higher in concentration
same,activity in the APO stereotypy test,[7],potent activity
same,IC50,[8],> 1000 nM
same,IC50,[9],300 nM
same,IC50,[10],330 nM
same,IC50,[11],> 1000 nM
"O=C1CC2(CCCC2)CC(=O)N1CCCCN1CCN(c2nsc3ccccc23)CC1 [BMY 13859, reference compound]",compound formed after administration of BMY 13859,[5]; high pressure liquid chromatography,a compound which co-elutes (high pressure liquid chromatography) with compound I is formed
same,concentration of administered agent in blood plasma versus the other (interconverted) agent,[6],several-fold higher in concentration
same,compound formed after administration of BMY 13859,[12],a compound which co-elutes (high pressure liquid chromatography) with compound I is formed
same,IC50,[8],10 nM
same,IC50,[9],1 nM
same,IC50,[10],50 nM
same,IC50,[11],> 1000 nM
